In patent publication US20240208992A1, “MACROCYCLES AS CFTR MODULATORS” (Idorsia Pharmaceuticals Ltd, priority 2021, published 2024):

Biological target: human F508del-CFTR (Homo sapiens, UniProt P13569, DEL508-508)
Assay: F508del-CFTR cell surface expression (corrector activity), DiscoveRx ß-galactosidase complementation chemiluminescence assay in recombinant U2OS cell line;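 note: U2OS cells co-expressing ProLink-tagged F508del-CFTR and a membrane-anchored enzyme acceptor, where more surface CFTR restores β-galactosidase activity measured by chemiluminescence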
Details: U2OS cell line, 16h compound incubation; for EC50: EC50, F508del-CFTR cell surface expression, geomean values; for Emax: U2OS, in relation to the Emax of the corrector lumacaftor (=100%), arithmetic mean values

human F508del-CFTR, sequence (P13569 with tags, fused parts or gaps DEL508-508): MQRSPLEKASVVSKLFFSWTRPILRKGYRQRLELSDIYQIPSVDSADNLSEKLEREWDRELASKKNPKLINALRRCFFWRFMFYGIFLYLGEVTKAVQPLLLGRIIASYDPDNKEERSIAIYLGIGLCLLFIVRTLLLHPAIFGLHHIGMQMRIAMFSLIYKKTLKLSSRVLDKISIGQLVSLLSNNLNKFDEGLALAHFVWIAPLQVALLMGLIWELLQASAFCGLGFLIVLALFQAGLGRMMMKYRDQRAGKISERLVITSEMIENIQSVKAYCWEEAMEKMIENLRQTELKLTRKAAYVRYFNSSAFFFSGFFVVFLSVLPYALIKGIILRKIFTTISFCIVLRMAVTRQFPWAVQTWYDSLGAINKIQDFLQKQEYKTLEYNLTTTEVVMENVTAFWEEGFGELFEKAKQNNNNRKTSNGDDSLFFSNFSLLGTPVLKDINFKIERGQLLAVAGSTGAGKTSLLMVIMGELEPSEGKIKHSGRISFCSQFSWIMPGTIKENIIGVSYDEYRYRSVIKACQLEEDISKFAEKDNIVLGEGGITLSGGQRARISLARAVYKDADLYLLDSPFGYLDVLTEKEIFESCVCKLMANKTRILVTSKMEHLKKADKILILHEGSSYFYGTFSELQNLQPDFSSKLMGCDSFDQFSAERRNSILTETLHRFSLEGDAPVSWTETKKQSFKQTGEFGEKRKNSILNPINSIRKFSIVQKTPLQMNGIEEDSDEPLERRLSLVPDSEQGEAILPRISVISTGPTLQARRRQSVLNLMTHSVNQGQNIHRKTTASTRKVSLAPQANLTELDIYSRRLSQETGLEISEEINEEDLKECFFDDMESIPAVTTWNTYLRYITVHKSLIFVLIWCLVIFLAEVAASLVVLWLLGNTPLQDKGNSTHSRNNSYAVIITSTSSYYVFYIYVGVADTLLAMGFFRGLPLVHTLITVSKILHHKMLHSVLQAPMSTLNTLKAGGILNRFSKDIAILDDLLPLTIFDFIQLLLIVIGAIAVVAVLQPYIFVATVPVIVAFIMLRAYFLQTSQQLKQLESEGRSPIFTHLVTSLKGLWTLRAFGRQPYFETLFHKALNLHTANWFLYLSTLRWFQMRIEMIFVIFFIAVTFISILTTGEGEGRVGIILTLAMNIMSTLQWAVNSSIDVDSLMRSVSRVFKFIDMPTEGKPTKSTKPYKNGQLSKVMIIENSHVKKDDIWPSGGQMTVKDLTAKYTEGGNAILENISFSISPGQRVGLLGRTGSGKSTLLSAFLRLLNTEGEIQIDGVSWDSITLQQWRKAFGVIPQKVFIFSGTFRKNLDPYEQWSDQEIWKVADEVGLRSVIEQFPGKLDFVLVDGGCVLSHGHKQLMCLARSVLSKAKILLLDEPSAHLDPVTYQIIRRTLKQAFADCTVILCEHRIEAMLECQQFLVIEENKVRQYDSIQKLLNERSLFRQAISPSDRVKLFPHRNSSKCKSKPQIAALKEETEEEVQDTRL

Work on COc1cccc(CCNC(=O)[C@@H]2CC(=O)N(C)[C@@H](CC(C)C)C(=O)N3CCOC[C@@H]3C(=O)N[C@H](Cc3ccccc3)COc3cnc4ccccc4c3C(=O)N2)c1OC [Example 65, (9S,13S,19aR,22R)-22-benzyl-N-(2,3-dimethoxyphenethyl)-13-isobutyl-12-methyl-7,11,14,20-tetraoxo-7,8,9,10,11,12,13,14,16,17,19,19a,20,21,22,23-hexadecahydro-[1,4]oxazino[3′,4′:6,7][1]oxa[4,7,10,14]tetraazacycloheptadecino[17,16-c]quinoline-9-carboxamide] yielded an EC50 of 647 nM and an Emax of 282%.
Molecule CC(C)C[C@H]1C(=O)N2CCOC[C@@H]2C(=O)N[C@H](Cc2ccccc2)COc2cnc3ccccc3c2C(=O)N[C@H](C(=O)NCCc2cccc(F)c2)CC(=O)N1C [Example 66, (9S,13S,19aR,22R)-22-benzyl-N-(3-fluorophenethyl)-13-isobutyl-12-methyl-7,11,14,20-tetraoxo-7,8,9,10,11,12,13,14,16,17,19,19a,20,21,22,23-hexadecahydro-[1,4]oxazino[3′,4′:6,7][1]oxa[4,7,10,14]tetraazacycloheptadecino[17,16-c]quinoline-9-carboxamide] has an EC50 of 587 nM and an Emax of 169%.
Work on CC(C)C[C@H]1C(=O)N2CCOC[C@@H]2C(=O)N[C@H](Cc2ccccc2)COc2cnc3ccccc3c2C(=O)N[C@H](C(=O)NCCc2ccc(F)cc2)CC(=O)N1C [Example 67, (9S,13S,19aR,22R)-22-benzyl-N-(4-fluorophenethyl)-13-isobutyl-12-methyl-7,11,14,20-tetraoxo-7,8,9,10,11,12,13,14,16,17,19,19a,20,21,22,23-hexadecahydro-[1,4]oxazino[3′,4′:6,7][1]oxa[4,7,10,14]tetraazacycloheptadecino[17,16-c]quinoline-9-carboxamide] yielded an EC50 of 615 nM and an Emax of 236%.
CC(C)C[C@H]1C(=O)N2CCOC[C@@H]2C(=O)N[C@H](Cc2ccccc2)COc2cnc3ccccc3c2C(=O)N[C@H](C(=O)NCCc2c(F)cccc2F)CC(=O)N1C [Example 68, (9S,13S,19aR,22R)-22-benzyl-N-(2,6-difluorophenethyl)-13-isobutyl-12-methyl-7,11,14,20-tetraoxo-7,8,9,10,11,12,13,14,16,17,19,19a,20,21,22,23-hexadecahydro-[1,4]oxazino[3′,4′:6,7][1]oxa[4,7,10,14]tetraazacycloheptadecino[17,16-c]quinoline-9-carboxamide] showed an EC50 of 448 nM and an Emax of 331%.
CC(C)C[C@H]1C(=O)N2CCOC[C@@H]2C(=O)N[C@H](Cc2ccccc2)COc2ccc3ccccc3c2C(=O)N[C@H](C(=O)NCCc2nc(-c3ccccc3)no2)CC(=O)N1C [Example 69, (9S,13S,19aR,22R)-22-benzyl-13-isobutyl-12-methyl-7,11,14,20-tetraoxo-N-(2-(3-phenyl-1,2,4-oxadiazol-5-yl)ethyl)-7,8,9,10,11,12,13,14,16,17,19,19a,20,21,22,23-hexadecahydro-[1,4]oxazino[3′,4′:6,7][1]oxa[4,7,10,14]tetraazacycloheptadecino[17,16-c]quinoline-9-carboxamide] gave an EC50 of 454 nM and an Emax of 262%.
With Cc1onc(CCNC(=O)[C@@H]2CC(=O)N(C)[C@@H](CC(C)C)C(=O)N3CCOC[C@@H]3C(=O)N[C@H](Cc3ccccc3)COc3ccc4ccccc4c3C(=O)N2)c1C [Example 70, (4aR,7R,18S,22S)-7-benzyl-N-(2-(4,5-dimethylisoxazol-3-yl)ethyl)-22-isobutyl-21-methyl-5,16,20,23-tetraoxo-1,2,4,4a,5,6,7,8,16,17,18,19,20,21,22,23-hexadecahydronaphtho[1,2-p][1,4]oxazino[3,4-f][1]oxa[4,7,10,14]tetraazacycloheptadecine-18-carboxamide] the EC50 was 754 nM and the Emax was 202%.
COc1cc(CCNC(=O)[C@@H]2CC(=O)N(C)[C@@H](CC(C)C)C(=O)N3CCCC[C@@H]3C(=O)N[C@H](Cc3ccccc3)COc3cnc4ccccc4c3C(=O)N2)cc(OC)c1 [Example 71, (9S,13S,19aR,22R)-22-benzyl-N-(3,5-dimethoxyphenethyl)-13-isobutyl-12-methyl-7,11,14,20-tetraoxo-7,8,9,10,11,12,13,14,17,18,19,19a,20,21,22,23-hexadecahydro-16H-pyrido[2′,11:6,7][1]oxa[4,7,10,14]tetraazacycloheptadecino[17,16-c]quinoline-9-carboxamide] gave an EC50 of 338 nM and an Emax of 326%.
CC(C)C[C@H]1C(=O)N2CCCC[C@@H]2C(=O)N[C@H](Cc2ccccc2)COc2cnc3ccccc3c2C(=O)N[C@H](C(=O)NCCc2c(F)cccc2F)CC(=O)N1C [Example 72, (9S,13S,19aR,22R)-22-benzyl-N-(2,6-difluorophenethyl)-13-isobutyl-12-methyl-7,11,14,20-tetraoxo-7,8,9,10,11,12,13,14,17,18,19,19a,20,21,22,23-hexadecahydro-16H-pyrido[2′,1′:6,7][1]oxa[4,7,10,14]tetraazacycloheptadecino[17,16-c]quinoline-9-carboxamide] showed an EC50 of 142 nM and an Emax of 335%.
In the case of CC(C)C[C@H]1C(=O)N2CCCC[C@@H]2C(=O)N[C@H](Cc2ccccc2)COc2cnc3ccccc3c2C(=O)N[C@H](C(=O)NCCc2c(F)cc(F)cc2F)CC(=O)N1C [Example 73, (9S,13S,19aR,22R)-22-benzyl-13-isobutyl-12-methyl-7,11,14,20-tetraoxo-N-(2,4,6-trifluorophenethyl)-7,8,9,10,11,12,13,14,17,18,19,19a,20,21,22,23-hexadecahydro-16H-pyrido[2′,1′:6,7][1]oxa[4,7,10,14]tetraazacycloheptadecino[17,16-c]quinoline-9-carboxamide], the EC50 is reported as 214 nM and the Emax is reported as 253%.
Work on COc1cc(F)c(CCNC(=O)[C@@H]2CC(=O)N(C)[C@@H](CC(C)C)C(=O)N3CCCC[C@@H]3C(=O)N[C@H](Cc3ccccc3)COc3cnc4ccccc4c3C(=O)N2)c(F)c1 [Example 74, (9S,13S,19aR,22R)-22-benzyl-N-(2,6-difluoro-4-methoxyphenethyl)-13-isobutyl-12-methyl-7,11,14,20-tetraoxo-7,8,9,10,11,12,13,14,17,18,19,19a,20,21,22,23-hexadecahydro-16H-pyrido[2′,1′:6,7][1]oxa[4,7,10,14]tetraazacycloheptadecino[17,16-c]quinoline-9-carboxamide] yielded an EC50 of 128 nM and an Emax of 271%.
With CC(C)C[C@H]1C(=O)N2CCCC[C@@H]2C(=O)N[C@H](Cc2ccccc2)COc2cnc3ccccc3c2C(=O)N[C@H](C(=O)NCCc2ccc(F)c(F)c2)CC(=O)N1C [Example 75, (9S,13S,19aR,22R)-22-benzyl-N-(3,4-difluorophenethyl)-13-isobutyl-12-methyl-7,11,14,20-tetraoxo-7,8,9,10,11,12,13,14,17,18,19,19a,20,21,22,23-hexadecahydro-16H-pyrido[2′,1′:6,7][1]oxa[4,7,10,14]tetraazacycloheptadecino[17,16-c]quinoline-9-carboxamide] the EC50 was 255 nM and the Emax was 191%.
